Active and inactive are the calls of the source. The calls are words filed in the database; no cut-off is given here. Numbered stars: 1 amine (or outer) side, 2 acyl side, 3 side chain; on linkers, the order of the positions; unused ones are H or OH. Square brackets hold non-standard residues; d marks the D form. Peptide text beside a SMILES is read from it. * marks the point of attachment. X2 = O=C(Cc1ccc(CCN[*:1])cc1)[*:2]; X1 = NC(=O)Cc1ccc(CCN*)cc1
How the values were obtained:
[1] = Inhibition of SARS-CoV-2 main protease using K(Dabcy1)-TSAVLQSGFRKM-E-Edans-NH2 as substrate preincubated with enzyme for 30 mins followed by substrate addition by FRET assay; set-up: species or system Severe acute respiratory syndrome coronavirus 2
[2] = system: Severe acute respiratory syndrome coronavirus 2; experiment: Inhibition of SARS-CoV-2 main protease using K(Dabcy1)-TSAVLQSGFRKM-E-Edans-NH2 as substrate at <=750 uM preincubated with enzyme for 30 mins followed by substrate addition by FRET assay; conditions: dose microM <=750, time 30.0 min
[3] = Stability of the compound assessed as SARS-CoV-2 main protease-mediated compound cleavage at 187.5 uM measured after 4 hrs by LC/MS analysis; type: ADME; conditions: severe acute respiratory syndrome coronavirus 2, 4 h
[4] = system: HEK293; experiment: Cytotoxicity against human HEK293 assessed as reduction in cell viability upto 256 uM after 72 hrs by LDH assay; type: cell-based; conditions: hek293, 72 h

Structure (SMILES)	IC50 [1] [mM]	inhibition [2]	Stabilty [3]	Activity [4]
CC(=O)N[C@@H](Cc1ccccc1)C(=O)N[C@@H](CCC(N)=O)C(=O)N[C@@H](CO)C(=O)N[C@@H](CCCCN)C(=O)NCCc1ccc(CC(N)=O)cc1 (Ac-FQSK-X1)	> 1.5	inactive	–	–
NCCCC[C@@H]1NC(=O)[C@H](CO)NC(=O)[C@H](CCC(N)=O)NC(=O)[C@H](Cc2ccccc2)NC(=O)Cc2ccc(cc2)CCNC1=O.O=C(O)C(F)(F)F (cyclo(FQSK[X2]))	–	–	Stable	Non-Toxic
NCCCC[C@@H]1NC(=O)[C@H](CO)NC(=O)[C@H](CCC(N)=O)NC(=O)[C@@H](Cc2ccccc2)NC(=O)Cc2ccc(cc2)CCNC1=O (cyclo([dF]QSK[X2]))	> 1.5	–	–	–

Reference: ChEMBL document CHEMBL4842328, “A cyclic peptide inhibitor of the SARS-CoV-2 main protease” (Eur J Med Chem, 2021)
